Measured values from US20150299120A1, “Spirohydantoin compounds and their use as selective androgen receptor modulators” (NOVARTIS AG, priority 2012, published 2015).

What was measured:
androgen receptor (AR) = target: T1, androgen receptor (AR) (Homo sapiens, UniProt P10275); assay: Test 1: androgen receptor transcriptional activation (2XIDR17-luciferase) assay in transfected C2C12 cells; type: cell-based; details: for % Biological activity (C2C12 cell) 100 nM / % Biological activity (C2C12 cell) 5 μM: C2C12 cells, relative to 1 μM DHT; for % Biological activity (C2C12 cell) 100 nM: compound at 100 nM; for % Biological activity (C2C12 cell) 5 μM: compound at 5 μM; for Emax: C2C12, C2C12 cells, percentage activity relative to 1 μM DHT, read-out: Biological activity (C2C12 cell) Emax % (converted); for EC50: mouse myoblastic C2C12 cells transfected with full-length AR and 2XIDR17-luciferase, read-out: Biological activity (C2C12 cell) EC50
T1 construct: transfecting C2C12 cells with a plasmid containing full-length AR; expressed in transfected cells; host or cells: mouse myoblastic C2C12 cells (ATCC CRL-1772), transiently transfected with AR-FL in pcDNA 3.1(+)
T1 sequence (P10275 1-920): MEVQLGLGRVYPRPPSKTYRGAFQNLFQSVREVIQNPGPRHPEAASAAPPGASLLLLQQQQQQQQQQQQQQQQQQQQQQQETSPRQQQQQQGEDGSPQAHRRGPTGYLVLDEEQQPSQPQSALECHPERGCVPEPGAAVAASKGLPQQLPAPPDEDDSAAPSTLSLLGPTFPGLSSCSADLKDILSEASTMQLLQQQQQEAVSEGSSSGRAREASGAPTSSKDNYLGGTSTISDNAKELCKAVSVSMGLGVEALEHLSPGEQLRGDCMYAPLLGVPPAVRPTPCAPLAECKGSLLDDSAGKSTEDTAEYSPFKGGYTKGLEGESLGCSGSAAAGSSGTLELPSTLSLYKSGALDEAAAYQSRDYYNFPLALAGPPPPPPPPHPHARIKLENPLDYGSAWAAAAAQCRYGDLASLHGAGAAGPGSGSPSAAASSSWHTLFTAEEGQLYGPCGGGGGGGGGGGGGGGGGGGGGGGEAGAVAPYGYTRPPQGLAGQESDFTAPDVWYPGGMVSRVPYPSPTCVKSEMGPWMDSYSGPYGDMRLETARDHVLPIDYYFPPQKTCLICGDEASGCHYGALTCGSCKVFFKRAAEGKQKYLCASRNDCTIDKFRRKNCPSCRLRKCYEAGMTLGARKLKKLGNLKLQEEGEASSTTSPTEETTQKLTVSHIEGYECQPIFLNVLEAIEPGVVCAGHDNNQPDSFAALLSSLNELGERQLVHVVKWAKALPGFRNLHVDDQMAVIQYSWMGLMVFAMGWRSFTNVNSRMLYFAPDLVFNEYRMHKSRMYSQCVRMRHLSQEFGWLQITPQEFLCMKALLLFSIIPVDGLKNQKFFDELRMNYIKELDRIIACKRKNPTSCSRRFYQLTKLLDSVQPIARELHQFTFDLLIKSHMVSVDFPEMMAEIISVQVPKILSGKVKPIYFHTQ
Experimental: A suitable assay to determine the ability of a ligand to transcriptionally activate androgen receptor (AR) is carried out using mouse myoblastic C2C12 cells. The assay involves transfecting C2C12 cells with a plasmid containing full-length AR along with an AR response element linked to luciferase (2XIDR17). The luminescence read-out at the end of the assay is measured using Victor 3 and is a direct measure of the transcriptional activity. The assay has been validated using the reference compound, BMS-564929, for which EC50 values have been reported in a similar set-up.
C2C12 cells were obtained from ATCC (Cat #CRL-1772) and maintained in DMEM modified to contain 4 mM L-glutamine, 4.5 g/L glucose, 1 mM sodium pyruvate and 1.5 g/L sodium bicarbonate and 10% FBS.
AR-FL in pcDNA 3.1(+) and 2XIDR17 in pGL4.26 plasmids prepared using Genelute plasmid miniprep kit from Sigma Cat #PLED35 Steadyglow Luciferase assay system Promega Cat #E2550
• C2C12 cells were seeded in a 96-well plate in DMEM (Dulbecco's Modified Eagle Medium) without phenol red and containing 10% CS-FBS (Charcoal-stripped Fetal Bovine Serum) at 8000 cells/well. • The next day, cells were transfected with an equimolar ratio of (Androgen Receptor-Full length) AR-FL and 2XIDR17-Luciferase at a total plasmid concentration of 200 ng/well using Lipofectamine 2000 following manufacturer's protocol. • For the transfection, 83 ng of AR-FL and 117 ng of 2XIDR17-Luciferase were in 12.5 μl of OptiMEM—Mix A. 0.4 μl of Lipofectamine 2000 was added to 12.5 μl of OptiMEM and incubated for 5 min at room temperature—Mix B. The two mixes A and B were mixed and incubated at room temperature for an additional fifteen minutes. An additional 50 μl of OptiMEM was added, gently mixed and this mixture was added to the cells in the 96-well plate. The above quantities are requirements per well of a 96-well plate. Master mixes were made for the entire plate, with proportional quantity of reagents being used. • 5 h after transfection, compounds were added to the wells in DMEM without phenol red and containing 10% CS-FBS, maintaining a final DMSO concentration of 0.5%. A typical dose response curve starts at 10 μM and includes a 7-point, log dilution, done in triplicates. • After overnight incubation with the compounds, 100 ul of working solution of Steadyglow reagent was added to the wells. • The plates were placed in a shaker for 15 min at the end of which the lysate containing luciferase was transferred to a white flat-bottom plate and read under a luminescence setting in Victor. • Background subtracted counts (Luminescence from DMSO control wells is considered the background) are used to calculate percentage activity, expressed relative to activity with 1 μM (Dihydrotestosterone) DHT (at least two sets of triplicates for 1 μM DHT are included per plate).
The EC50 curves for the compounds for 8 compound concentrations were fitted by the respective function using non-linear least-squares regression in Graphpad Prism 4.0 (Graphpad Software, San Diego, Calif., USA).

Row | Compound | % Biological activity (C2C12 cell) 100 nM (androgen receptor (AR)) [%] | % Biological activity (C2C12 cell) 5 μM (androgen receptor (AR)) [%] | melting point [°C] | Emax (androgen receptor (AR)) [%] | EC50 (androgen receptor (AR)) [nM]
1 | Cc1c(N2C(=O)N(C)C3(CCCC3CO)C2=O)ccc(C#N)c1Cl (stereo not drawn) [Example 1.6, 2-chloro-4-(6-(hydroxymethyl)-1-methyl-2,4-dioxo-1,3-diazaspiro[4.4]nonan-3-yl)-3-methylbenzonitrile] | 28 | 75 | 157 |  | 
2 | Cc1c(N2C(=O)N(C)C3(CCC(F)(F)C3)C2=O)ccc(C#N)c1Cl (stereo not drawn) [Example 6.3, 2-chloro-4-(7,7-difluoro-1-methyl-2,4-dioxo-1,3-diazaspiro[4.4]nonan-3-yl)-3-methylbenzonitrile] |  |  | 184 | 63 | 14.9
3 | Cc1c(N2C(=O)N(Cc3ccccn3)C3(CCCC3)C2=O)ccc(C#N)c1Cl [Example 8.4, 2-chloro-4-(2,4-dioxo-1-(pyridin-2-ylmethyl)-1,3-diazaspiro[4.4]nonan-3-yl)-3-methylbenzonitrile] |  |  | 179 | 96 | 48
4 | Cc1noc(C)c1CN1C(=O)N(c2ccc(C#N)c(Cl)c2C)C(=O)C12CCCC2 [Example 8.3, 2-chloro-4-(1-((3,5-dimethylisoxazol-4-yl)methyl)-2,4-dioxo-1,3-diazaspiro[4.4]nonan-3-yl)-3-methylbenzonitrile] | 3 | 19 | 109 |  | 
5 | COCCN1C(=O)N(c2ccc(C#N)c(Cl)c2C)C(=O)C12CCCC2 [Example 3.1, 2-chloro-4-(1-(2-methoxyethyl)-2,4-dioxo-1,3-diazaspiro[4.4]nonan-3-yl)-3-methylbenzonitrile] |  |  | 115 | 96 | 105
6 | Cc1cc(CN2C(=O)N(c3ccc(C#N)c(Cl)c3C)C(=O)C23CCCC3)no1 [Example 8.1, 2-chloro-3-methyl-4-(1-((5-methylisoxazol-3-yl)methyl)-2,4-dioxo-1,3-diazaspiro[4.4]nonan-3-yl)benzonitrile] |  |  | 134 | 109 | 6
7 | Cc1c(N2C(=O)N(C)C3(CCCC3O)C2O)ccc(C#N)c1Cl (mixture of isomers) [Example 1.2, 2-chloro-4-(4,6-dihydroxy-1-methyl-2-oxo-1,3-diazaspiro[4.4]nonan-3-yl)-3-methylbenzonitrile] |  |  | 179 | 79 | 930
8 | Cc1c(N2C(=O)N(Cc3ccc(C#N)cc3)C3(CCCC3)C2=O)ccc(C#N)c1Cl [Example 8.0, 2-chloro-4-(1-(4-cyanobenzyl)-2,4-dioxo-1,3-diazaspiro[4.4]nonan-3-yl)-3-methylbenzonitrile] |  |  | 195 | 106 | 0.48
